The numbers were not newly measured in US10871492B2, “Methods for labeling urine in a subject with fluorophores” (UPTRU INC., priority 2015, dated 2020), which cites them from elsewhere.

The conditions of this data set: health care applications, especially fundus angiography.

For `O=C([O-])c1ccccc1-c1c2ccc(=O)cc-2oc2cc([O-])ccc12.[Na+].[Na+]` [Fluorescein sodium salt, fluorescein sodium salt], the “dose generally considered safe” value was ≤ 25 mg/kg of body weight.
